Laboratory results reported in paper PMC6598440 (Clinical chemistry, 2016).
Like-named read-outs stand apart in the source and are kept apart here.

How the values were obtained:
[1] = Comparison of plasma and whole blood hydroxyurea concentrations; type: in vivo, patients with SCA
[2] = cited from earlier work
[3] = for degradation: whole dried blood on DMPK-C cards and VAMS devices, 4 °C, 30 days

hydroxyurea concentrations in plasma and whole blood compared ([1]; patients with SCA treated with hydroxyurea, venipuncture or finger-prick sampling): comparable
plasma and whole blood hydroxyurea concentrations compared ([1]; preliminary data using an HPLC method): equivalent
% of the target concentration measured in freshly prepared samples ([3]; DMPK-C cards, stored at 4 °C, 0.5 μg/mL, T = 7 days): 90.17 ± 0.44%
% of the target concentration measured in freshly prepared samples ([3]; DMPK-C cards, stored at 4 °C, 0.5 μg/mL, T = 14 days): 81.75 ± 3.85%
% of the target concentration measured in freshly prepared samples ([3]; DMPK-C cards, stored at 4 °C, 0.5 μg/mL, T = 30 days): 75.85 ± 4.08%
% of the target concentration measured in freshly prepared samples ([3]; DMPK-C cards, stored at 4 °C, 60.0 μg/mL, T = 7 days): 65.37 ± 1.07%
% of the target concentration measured in freshly prepared samples ([3]; DMPK-C cards, stored at 4 °C, 60.0 μg/mL, T = 14 days): 54.13 ± 3.39%
% of the target concentration measured in freshly prepared samples ([3]; DMPK-C cards, stored at 4 °C, 60.0 μg/mL, T = 30 days): 48.58 ± 0.23%
% of the target concentration measured in freshly prepared samples ([3]; DMPK-C cards, stored at −20 °C, 0.5 μg/mL, T = 7 days): 95.08 ± 0.01%
% of the target concentration measured in freshly prepared samples ([3]; DMPK-C cards, stored at −20 °C, 0.5 μg/mL, T = 14 days): 90.56 ± 13.29%
% of the target concentration measured in freshly prepared samples ([3]; DMPK-C cards, stored at −20 °C, 0.5 μg/mL, T = 30 days): 96.07 ± 5.12%
% of the target concentration measured in freshly prepared samples ([3]; DMPK-C cards, stored at −20 °C, 60.0 μg/mL, T = 7 days): 90.88 ± 1.83%
% of the target concentration measured in freshly prepared samples ([3]; DMPK-C cards, stored at −20 °C, 60.0 μg/mL, T = 14 days): 92.99 ± 2.03%
% of the target concentration measured in freshly prepared samples ([3]; DMPK-C cards, stored at −20 °C, 60.0 μg/mL, T = 30 days): 93.07 ± 3.11%
% of the target concentration measured in freshly prepared samples ([3]; DMPK-C cards, stored at −80 °C, 0.5 μg/mL, T = 7 days): 102.14 ± 0.59%
% of the target concentration measured in freshly prepared samples ([3]; DMPK-C cards, stored at −80 °C, 0.5 μg/mL, T = 14 days): 97.41 ± 14.36%
% of the target concentration measured in freshly prepared samples ([3]; DMPK-C cards, stored at −80 °C, 0.5 μg/mL, T = 30 days): 99.98 ± 3.81%
% of the target concentration measured in freshly prepared samples ([3]; DMPK-C cards, stored at −80 °C, 60.0 μg/mL, T = 7 days): 93.69 ± 3.64%
% of the target concentration measured in freshly prepared samples ([3]; DMPK-C cards, stored at −80 °C, 60.0 μg/mL, T = 14 days): 94.22 ± 2.34%
% of the target concentration measured in freshly prepared samples ([3]; DMPK-C cards, stored at −80 °C, 60.0 μg/mL, T = 30 days): 100.45 ± 1.09%
% of the target concentration measured in freshly prepared samples ([3]; VAMS devices, stored at 4 °C, 0.5 μg/mL, T = 7 days): 87.90 ± 10.32%
% of the target concentration measured in freshly prepared samples ([3]; VAMS devices, stored at 4 °C, 0.5 μg/mL, T = 14 days): 91.86 ± 7.97%
% of the target concentration measured in freshly prepared samples ([3]; VAMS devices, stored at 4 °C, 0.5 μg/mL, T = 30 days): 75.11 ± 0.56%
% of the target concentration measured in freshly prepared samples ([3]; VAMS devices, stored at 4 °C, 60.0 μg/mL, T = 7 days): 64.19 ± 1.28%
% of the target concentration measured in freshly prepared samples ([3]; VAMS devices, stored at 4 °C, 60.0 μg/mL, T = 14 days): 51.98 ± 0.46%
% of the target concentration measured in freshly prepared samples ([3]; VAMS devices, stored at 4 °C, 60.0 μg/mL, T = 30 days): 46.14 ± 0.98%
% of the target concentration measured in freshly prepared samples ([3]; VAMS devices, stored at −20 °C, 0.5 μg/mL, T = 7 days): 106.52 ± 12.11%
% of the target concentration measured in freshly prepared samples ([3]; VAMS devices, stored at −20 °C, 0.5 μg/mL, T = 14 days): 103.15 ± 2.56%
% of the target concentration measured in freshly prepared samples ([3]; VAMS devices, stored at −20 °C, 0.5 μg/mL, T = 30 days): 95.37 ± 6.01%
% of the target concentration measured in freshly prepared samples ([3]; VAMS devices, stored at −20 °C, 60.0 μg/mL, T = 7 days): 83.69 ± 1.28%
% of the target concentration measured in freshly prepared samples ([3]; VAMS devices, stored at −20 °C, 60.0 μg/mL, T = 14 days): 82.55 ± 1.65%
% of the target concentration measured in freshly prepared samples ([3]; VAMS devices, stored at −20 °C, 60.0 μg/mL, T = 30 days): 82.48 ± 0.78%
% of the target concentration measured in freshly prepared samples ([3]; VAMS devices, stored at −80 °C, 0.5 μg/mL, T = 7 days): 101.92 ± 10.34%
% of the target concentration measured in freshly prepared samples ([3]; VAMS devices, stored at −80 °C, 0.5 μg/mL, T = 14 days): 103.58 ± 3.20%
% of the target concentration measured in freshly prepared samples ([3]; VAMS devices, stored at −80 °C, 0.5 μg/mL, T = 30 days): 106.00 ± 8.10%
% of the target concentration measured in freshly prepared samples ([3]; VAMS devices, stored at −80 °C, 60.0 μg/mL, T = 7 days): 86.62 ± 1.86%
% of the target concentration measured in freshly prepared samples ([3]; VAMS devices, stored at −80 °C, 60.0 μg/mL, T = 14 days): 90.21 ± 0.94%
% of the target concentration measured in freshly prepared samples ([3]; VAMS devices, stored at −80 °C, 60.0 μg/mL, T = 30 days): 93.53 ± 0.68%
degradation ([3]; 0.5 μg/mL): 25%
degradation ([3]; 60 μg/mL): 52%
SMILES: NC(=O)NO [hydroxyurea, Hydroxyurea]
typical peak serum or plasma hydroxyurea concentrations ([2]; children with SCA, measured by colorimetry): 15 to 45 µg/mL
elimination [2]: primarily by renal clearance
half-life [2]: 1 to 3 h
time drug is detectable after the daily dose ([2]; most patients): 6 to 8 h
time of peak serum concentrations after administration ([2]; oral, once daily): 15 to 60 min
oral bioavailability ([2]; oral): excellent
